Laboratory results published in patent publication US20200048267A1, “OGA INHIBITOR COMPOUNDS” (Janssen Pharmaceutica NV, priority 2017, published 2020).

How the values were obtained:
[1] = molecular target: T1, recombinant human Meningioma Expressed Antigen 5 (MGEA5), also referred to as O-GlcNAcase (OGA) (Homo sapiens, UniProt O60502); test: OGA biochemical assay (inhibition of FM-GlcNAc hydrolysis, fluorescence); conditions: for Emax: read-out: ENZYMATIC Emax (%); for IC50: read-out: ENZYMATIC hOGA, pIC50 (converted)
T1 construct: Full length OGA enzyme was purchased at OriGene (cat # TP322411); purchased OriGene TP322411
T1 sequence (O60502 1-916): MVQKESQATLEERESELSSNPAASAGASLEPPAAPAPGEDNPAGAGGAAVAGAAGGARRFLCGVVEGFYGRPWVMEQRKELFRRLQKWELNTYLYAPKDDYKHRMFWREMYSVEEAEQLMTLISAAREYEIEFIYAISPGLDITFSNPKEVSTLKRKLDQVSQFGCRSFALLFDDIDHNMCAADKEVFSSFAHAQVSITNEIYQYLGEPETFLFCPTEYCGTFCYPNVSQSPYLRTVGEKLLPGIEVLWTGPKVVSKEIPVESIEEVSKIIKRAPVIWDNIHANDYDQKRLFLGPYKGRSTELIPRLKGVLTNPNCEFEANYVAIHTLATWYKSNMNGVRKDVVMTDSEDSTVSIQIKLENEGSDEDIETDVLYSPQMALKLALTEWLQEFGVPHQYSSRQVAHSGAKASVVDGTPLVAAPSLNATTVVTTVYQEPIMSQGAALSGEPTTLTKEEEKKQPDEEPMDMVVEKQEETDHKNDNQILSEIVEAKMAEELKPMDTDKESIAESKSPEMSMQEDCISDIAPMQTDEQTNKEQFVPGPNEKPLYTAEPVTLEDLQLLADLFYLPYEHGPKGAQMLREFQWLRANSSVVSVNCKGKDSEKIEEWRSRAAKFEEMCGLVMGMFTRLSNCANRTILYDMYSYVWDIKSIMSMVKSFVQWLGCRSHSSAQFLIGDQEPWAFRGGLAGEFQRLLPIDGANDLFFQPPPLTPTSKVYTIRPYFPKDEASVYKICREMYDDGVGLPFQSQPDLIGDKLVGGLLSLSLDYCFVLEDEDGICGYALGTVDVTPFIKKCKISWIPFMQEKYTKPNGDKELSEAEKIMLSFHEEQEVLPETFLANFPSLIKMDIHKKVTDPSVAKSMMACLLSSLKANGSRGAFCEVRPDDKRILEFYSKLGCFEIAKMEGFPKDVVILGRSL
Text: The assay is based on the inhibition of the hydrolysis of fluorescein mono-β-D-N-Acetyl-Glucosamine (FM-GlcNAc) (Mariappa et al. 2015, Biochem J 470:255) by the recombinant human Meningioma Expressed Antigen 5 (MGEA5), also referred to as O-GlcNAcase (OGA). The hydrolysis FM-GlcNAc (Marker Gene technologies, cat # M1485) results in the formation of B-D-N-glucosamineacetate and fluorescein. The fluorescence of the latter can be measured at excitation wavelength 485 nm and emission wavelength 538 nm. An increase in enzyme activity results in an increase in fluorescence signal. Full length OGA enzyme was purchased at OriGene (cat # TP322411). The enzyme was stored in 25 mM Tris.HCl, pH 7.3, 100 mM glycine, 10% glycerol at −20° C. Thiamet G and GlcNAcStatin were tested as reference compounds (Yuzwa et al. 2008 Nature Chemical Biology 4:483; Yuzwa et al. 2012 Nature Chemical Biology 8:393). The assay was performed in 200 mM Citrate/phosphate buffer supplemented with 0.005% Tween-20. 35.6 g Na2HPO4 2 H2O (Sigma, # C0759) were dissolved in 1 L water to obtain a 200 mM solution. 19.2 g citric acid (Merck, # 1.06580) was dissolved in 1 L water to obtain a 100 mM solution. pH of the sodium phosphate solution was adjusted with the citric acid solution to 7.2. The buffer to stop the reaction consists of a 500 mM Carbonate buffer, pH 11.0. 734 mg FM-GlcNAc were dissolved in 5.48 mL DMSO to obtain a 250 mM solution and was stored at −20° C. OGA was used at 2 nM concentration and FM-GlcNAc at a 100 uM final concentration. Dilutions were prepared in assay buffer.
50 nl of a compound dissolved in DMSO was dispensed on Black Proxiplate™ 384 Plus Assay plates (Perkin Elmer, #6008269) and 3 μl fl-OGA enzyme mix added subsequently. Plates were pre-incubated for 60 min at room temperature and then 2 μl FM-GlcNAc substrate mix added. […] Plates were briefly centrifuged for 1 min at 1000rpm and incubate at room temperature for 6 h. To stop the reaction 5 μl STOP buffer were added and plates centrifuge again 1 min at 1000 rpm.
Fluorescence was quantified in the Thermo Scientific Fluoroskan Ascent or the PerkinElmer EnVision with excitation wavelength 485 nm and emission wavelength 538 nm.
For analysis a best-fit curve is fitted by a minimum sum of squares method. From this an IC50 value and Hill coefficient was obtained. High control (no inhibitor) and low control (saturating concentrations of standard inhibitor) were used to define the minimum and maximum values.

OGA = molecular target: T2, OGA (Homo sapiens, UniProt O60502); test: OGA cellular assay (ICC detection of O-GlcNAcylated proteins in HEK293 cells inducible for P301L mutant human Tau); type: cell-based; conditions: 6 hours incubation; for EC50: read-out: CELLULAR hOGA, pEC50 (converted)
T2 construct: HEK293 cells inducible for P301L mutant human Tau (isoform 2N4R) were established at Janssen; endogenous in cells; host or cells: HEK293 cells inducible for P301L mutant human Tau (2N4R)
T2 sequence (O60502 1-916): T1 sequence (O60502 1-916)
Experimental: HEK293 cells inducible for P301L mutant human Tau (isoform 2N4R) were established at Janssen. Thiamet-G was used for both plate validation (high control) and as reference compound (reference EC50 assay validation). OGA inhibition is evaluated through the immunocytochemical (ICC) detection of O-GlcNAcylated proteins by the use of a monoclonal antibody (CTD110.6; Cell Signaling, #9875) detecting O-GlcNAcylated residues as previously described (Dorfmueller et al. 2010 Chemistry & biology, 17:1250). Inhibition of OGA will result in an increase of O-GlcNAcylated protein levels resulting in an increased signal in the experiment. Cell nuclei are stained with Hoechst to give a cell culture quality control and a rough estimate of immediate compounds toxicity, if any. ICC pictures are imaged with a Perkin Elmer Opera Phenix plate microscope and quantified with the provided software Perkin Elmer Harmony 4.1.
Cells were propagated in DMEM high Glucose (Sigma, #D5796) following standard procedures. 2 days before the cell assay cells are split, counted and seeded in Poly-D-Lysine (PDL) coated 96-wells (Greiner, #655946) plate at a cell density of 12,000 cells per cm^2 (4,000 cells per well) in 100 µl of Assay Medium (Low Glucose medium is used to reduce basal levels of GlcNAcylation) (Park et al. 2014 The Journal of biological chemistry 289:13519). At the day of compound test medium from assay plates was removed and replenished with 90 μl of fresh Assay Medium. 10 μl of compounds at a 10 fold final concentration were added to the wells. Plates were centrifuged shortly before incubation in the cell incubator for 6 hours. DMSO concentration was set to 0.2%. Medium is discarded by applying vacuum. For staining of cells medium was removed and cells washed once with 100 μl D-PBS (Sigma, #D8537). From next step onwards unless other stated assay volume was always 50 μl and incubation was performed without agitation and at room temperature. Cells were fixed in 50 μl of a 4% paraformaldehyde (PFA, Alpha aesar, # 043368) PBS solution for 15 minutes at room temperature. […] Before analysis samples were washed 2 times manually for 5 minutes in ICC base buffer.
Imaging is performed using Perkin Elmer Phenix Opera using a water 20× objective and recording 9 fields per well. Intensity readout at 488 nm is used as a measure of O-GlcNAcylation level of total proteins in wells. To assess potential toxicity of compounds nuclei were counted using the Hoechst staining. IC50-values are calculated using parametric non-linear regression model fitting. As a maximum inhibition Thiamet G at a 200 uM concentration is present on each plate. In addition, a concentration response of Thiamet G is calculated on each plate.

Row | Compound | Emax [1] [%] | IC50 [1] [nM] | Emax (OGA) [%] | EC50 (OGA) [nM] | ENZYMATIC hOGA; pIC50 [1] | ENZYMATIC Emax (%) [1] [%]
1 | CCc1cncc(N2CCC3(CCN(Cc4cnc(NC(C)=O)s4)C3)C2)n1 (centres unmarked) [Product 19] | 102 | 117 | 56.4 | 871 | – | –
2 | CC(=O)Nc1ncc(CN2CCC3(CCN(c4cncc(C5CC5)n4)C3)C2)s1 (centres unmarked) [Product 13] | 100 | – | 92.3 | – | 7.69 | –
3 | CC(=O)Nc1ncc(CN2CCC3(CCN(c4ccc(C)nc4C#N)C3)C2)s1 (centres unmarked) [Product 57] | 101 | 26.3 | 56.1 | 794 | – | –
4 | COc1cncc(N2CCC3(CCN(Cc4cnc(NC(C)=O)s4)C3)C2)c1 (centres unmarked) [Product 67] | 99.4 | 34.7 | 45.6 | 537 | – | –
5 | Cc1cc(N2CCC3(CCN(Cc4nc5ccccc5[nH]4)C3)C2)nc(C)n1 (centres unmarked) [Product 30] | 100 | 324 | 7.7 | > 1000 | – | –
6 | Cc1cc(N2CCC3(CCN(Cc4ccc5nccnc5c4)C3)C2)nc(C)n1 (centres unmarked) [Product 22] | 96 | 275 | 12 | > 1000 | – | –
7 | Cc1cc(N2CCC3(CCN(Cc4ccc5sc(C)nc5c4)C3)C2)nc(C)n1 (centres unmarked) [Product 32] | 102 | 51.3 | 26.3 | > 1000 | – | –
8 | Cc1cc(N2CCC3(CCN(C(C)c4ccc5nccnc5c4)C3)C2)cc(C)n1 (single isomer, unassigned) [Product 7] | 98.6 | 72.4 | 62.9 | 3800 | – | –
9 | CC(=O)Nc1ncc(CN2CCC3(CCN(c4cc(C(F)(F)F)cc(C)n4)C3)C2)s1 (centres unmarked) [Product 62] | 100 | 42.7 | 22.2 | > 1000 | – | –
10 | Cc1cc(N2CCC3(CCN(C(C)c4ccc5scnc5c4)C3)C2)cc(C)n1 (centres unmarked) [Product 36] | 101 | 24 | 87.9 | 200 | – | –
11 | Cc1cc(N2CCC3(CCN(C(C)c4cnc5c(c4)OCCO5)C3)C2)cc(C)n1 (centres unmarked) [Product 37] | 99 | 182 | 20.4 | > 1000 | – | –

Continued, values first:

Row | Emax [1] [%] | IC50 [1] [nM] | Emax (OGA) [%] | EC50 (OGA) [nM] | ENZYMATIC hOGA; pIC50 [1] | ENZYMATIC Emax (%) [1] [%] | Compound
12 | 100 | 52.5 | 88.9 | 148 | – | – | CC(=O)Nc1ncc(CN2CCC3(CCN(c4c(C)cncc4C)C3)C2)s1 (centres unmarked) [Product 60]
13 | 102 | – | 123 | 141 | 8.22 | – | CC(=O)Nc1ncc(CN2CCC3(CCN(c4cc(C)nc(C)c4)C3)C2)s1 (centres unmarked) [Product 1]
14 | – | 3.72 | 100 | 282 | – | 100.9 | CC(=O)Nc1ncc(CN2CCC3(CCN(c4cc(C)nc(C)c4)C3)C2)s1 (single isomer, unassigned) [Product 3]
15 | 100 | 16.2 | 73.7 | 209 | – | – | CC(=O)Nc1ncc(CN2CCC3(CCN(c4ccnc(C)c4)C3)C2)s1 (centres unmarked) [Product 52]
16 | 101 | – | 87.3 | 77.6 | 7.87 | – | CC(=O)Nc1ncc(CN2CCC3(CCN(c4cc(C)ncc4C)C3)C2)s1 (centres unmarked) [Product 39]
17 | 100 | 8.51 | 93 | 123 | – | – | CC(=O)Nc1ncc(CN2CCC3(CCN(c4cnc(C)c(C)c4)C3)C2)s1 (centres unmarked) [Product 51]
18 | 99.6 | – | 88.8 | 45.7 | 8.41 | – | CC(=O)Nc1ncc(CN2CCC3(CCN(c4ncc(C)cc4C)C3)C2)s1 (centres unmarked) [Product 49]
19 | 102 | 5.89 | 86.3 | 56.2 | – | – | COc1cc(N2CCC3(CCN(Cc4cnc(NC(C)=O)s4)C3)C2)cc(C)n1 (centres unmarked) [Product 58]
20 | 101 | 9.12 | 62.6 | 251 | – | – | CCc1cc(N2CCC3(CCN(Cc4cnc(NC(C)=O)s4)C3)C2)cc(C)n1 (centres unmarked) [Product 64]
21 | 101 | – | 85.4 | 170 | 7.88 | – | CC(=O)Nc1ncc(CN2CCC3(CCN(c4cc(C)nc(C)n4)C3)C2)s1 (centres unmarked) [Product 9]
